Patent publication US20260022347A1, “TREATMENT AGENT FOR LUNG ADENOCARCINOMAS” (KEIO UNIVERSITY, priority 2022, published 2026)
“Also recorded” adds a separate entry of the source.

Experiments:
[1] = test system: NKX2-1-negative lung adenocarcinoma organoid strains (KOR189, KOR134); test: Growth of NKX2-1-negative lung adenocarcinoma organoids cultured with C59 (organoid area, micrographs); assay type: cell-based, human
Source text: Porcupine (PORCN) is an acyl transferase localized to the endoplasmic reticulum which performs palmitoylation of Wnt protein. In this experimental example, the therapeutic effect of NKX2-1-negative lung adenocarcinoma was examined using C59 (CAS No. 1243243-89-1), a Porcupine inhibitor.
In addition, the number in the upper left corner of each image indicates the percentage of an area occupied by organoids cultured under each condition when an area occupied by organoids cultured in the absence of Wnt-3A is 1.

[2] = test system: Wnt target genes LGR5 and AXIN2; test: Quantitative RT-PCR of Wnt target genes LGR5 and AXIN2 in organoids cultured with C59; assay type: cell-based, human
Source text: In FIG. 10, the relative values of the expression levels of each gene with respect to the expression level of the GAPDH gene are shown as relative values, with the expression level in the absence of Wnt-3A (−Wnt) set to 1.

[3] = test system: Wnt-dependent (NKX2-1 negative) lung adenocarcinoma organoids, KOR80 and KOR97; test: Tumor area of GFP-labeled lung adenocarcinoma organoids transplanted under the renal capsule of immunodeficient mice; assay type: in vivo; conditions: 50 mg/kg C59 orally twice a day, 10 days after transplantation and day 30 to 40; kidneys excised day 40; versus vehicle
Source text: C59 (CAS No. 1243243-89-1) was used to examine the therapeutic effect of NKX2-1-negative lung adenocarcinoma in vivo.
FIG. 11 is a schematic view showing a schedule of this experiment. GFP-labeled lung adenocarcinoma organoids were transplanted under the renal capsule of immunodeficient mice. As the lung adenocarcinoma organoids, Wnt-dependent (NKX2-1 negative) lung adenocarcinoma organoids, KOR80 and KOR97, and Wnt-independent (NKX2-1-positive) lung adenocarcinoma organoids, KOR20 and KOR98, were used.
For 10 days after transplantation and from day 30 to day 40 after transplantation, 50 mg/kg of C59 or vehicle was administered orally twice a day. Subsequently, the mice were euthanized on day 40 after transplantation, and their kidneys were excised and observed. The tumor area was measured as the area of a GFP-positive region.
In addition, “vehicle” indicates the result of a control given vehicle, and “C59” indicates the result obtained by administering C59. In addition, in FIG. 13, “*” indicates a significant difference at p<0.05, “**” indicates a significant difference at p<0.01, and “N.S.” indicates no significant difference.

[4] = presence of Wnt-3A and C59 (+Wnt+C59)

Q: What does the source list for Cc1cc(-c2ccc(CC(=O)Nc3ccc(-c4cccnc4)cc3)cc2)ccn1 [C59]?
A: growth of NKX2-1-negative lung adenocarcinoma organoids ([1]; absence of Wnt-3A, presence of C59 (-Wnt+C59), KOR189, KOR134): growth inhibition; also recorded: inhibited the growth; growth of NKX2-1-negative lung adenocarcinoma organoids after addition of exogenous Wnt-3A to C59 treatment [1, 4]: counteracted the effect of the C59 treatment; expression levels of Wnt target genes (LGR5, AXIN2) ([2]; -Wnt+C59 relative to -Wnt, normalised to GAPDH, KOR189, KOR134, KOR97): reduced the expression levels; expression levels of Wnt target genes after addition of exogenous Wnt-3A to C59 treatment [2, 4]: restoring the expression levels; tumor area (GFP-positive region) [3]: significantly reduced the tumor area
